The record followed here is patent US20240425501A1, “NOVEL BICYCLIC HETEROARYL DERIVATIVES AS SOS1:KRAS PROTEINPROTEIN INTERACTION INHIBITORS” (SATYARX PHARMA INNOVATIONS PVT LTD, priority 2021, published 2024).

Broadly, the inhibition is the drop in the measured response relative to a control, in per cent. The low end stands for a weak effect, the high end for a strong effect.

For the experiment, the target named is T1, hSOS1 enzyme / KRAS (G12C), GST-Tag, GDP-bound protein (Homo sapiens, UniProt Q07889).
T1 sequence (Q07889 564-1049 limits assumed): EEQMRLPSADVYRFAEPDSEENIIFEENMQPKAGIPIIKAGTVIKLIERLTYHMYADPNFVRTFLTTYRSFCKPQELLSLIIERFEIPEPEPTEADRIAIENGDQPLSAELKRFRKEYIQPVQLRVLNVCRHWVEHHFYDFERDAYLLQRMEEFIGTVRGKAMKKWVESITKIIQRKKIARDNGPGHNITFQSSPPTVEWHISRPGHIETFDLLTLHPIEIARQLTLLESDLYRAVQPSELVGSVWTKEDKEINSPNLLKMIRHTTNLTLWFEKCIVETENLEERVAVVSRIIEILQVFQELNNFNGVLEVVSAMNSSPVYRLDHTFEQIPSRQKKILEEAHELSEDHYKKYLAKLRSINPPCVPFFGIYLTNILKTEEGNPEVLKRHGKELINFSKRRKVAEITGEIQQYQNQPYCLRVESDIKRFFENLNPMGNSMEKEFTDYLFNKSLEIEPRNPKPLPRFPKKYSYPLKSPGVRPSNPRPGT
As to the kind of experiment: SOS1-mediated KRAS guanine nucleotide exchange (GEF) assay, HTRF ("On Assay"). The class given is biochemical. The conditions noted are these: 1 μM compound. The protocol: Biochemical Assay: Measurement of SOS1-Mediated KRAS Guanine Nucleotide Exchange (GEF) Assay
This assay quantifies the HTRF-based SOS1 mediated guanine nucleotide exchange assay detecting GTP binding to KRAS (G12C), GST-Tag, GDP-bound protein. This is also referred as “On Assay”.The assay buffer composition is as follows: 10 mM HEPES pH-7, 150 mM NaCl, 5 mM MgCl2, 1 mM DTT, 0.05% BSA, 0.0025% IGEPAL CA-630 and MilliQ water. 0.5 μl of compounds diluted in assay buffer were dispensed into the respective wells of 384 black well test plate. 4.75 μl of KRAS working solution containing 100 nM KRAS (G12C), GST-Tag, GDP-bound protein GDP-loaded (Reaction biology) and 2 nM Anti GST-Tb cryptate (FRET donor, Cisbio) was added in assay buffer. The components were incubated for 10 min at 25° C.
4.75 μl of hSOS1 working solution containing 20 nM hSOS1 enzyme and 200 nM EDA-GTP-DY-647P (FRET acceptor, synthesized by Jena Bioscience (Germany), supplied as a 1 mM solution) was further added in assay buffer. 4.75 μl of inhibitor control having only 200 nM EDA-GTP-DY-647P1 component without hSOS1 working solution was added in the negative control well. The plate was short spun for few seconds and incubated for 10 min. HTRF was measured using Perkin Elmer-Nivo 5F multimode plate reader.
HTRF settings: EXCITATION FILTER—320/75 nm, EMISSION FILTER (1) —615/8 nm, EMISSION FILTER (2)—665/8 nm
(In general: Time-resolved FRET reads energy transfer from a long-lived donor to a nearby acceptor.)
On to `C[C@@H](Nc1nc(Cl)nc2cnc(N3CCOCC3)cc12)c1cccc(C(F)F)c1F` [Example 59, (R)-2-chloro-N-(1-(3-(difluoromethyl)-2-fluorophenyl)ethyl)-6-morpholinopyrido[3,4-d]pyrimidin-4-amine], for which the inhibition at 1 µM was no less than 50%.
For `CC1CCN(c2cc3c(N[C@H](C)c4cc(N)cc(C(F)(F)F)c4)nc(N4CCC4)nc3cn2)CC1` [Example 47, (R)—N-(1-(3-amino-5-(trifluoromethyl)phenyl)ethyl)-2-(azetidin-1-yl)-6-(4-methylpiperidin-1-yl)pyrido[3,4-d]pyrimidin-4-amine] the value was less than 50%; for `C[C@@H](Nc1nc(N(C)C)nc2cnc(C3CCN(C)CC3)cc12)c1cc(N)cc(C(F)(F)F)c1` [Example 69, (R)—N4-(1-(3-amino-5-(trifluoromethyl)phenyl)ethyl)-N2,N2-dimethyl-6-(1-methylpiperidin-4-yl)pyrido[3,4-d]pyrimidine-2,4-diamine], no less than 50%; for `CCN1CCN(c2cc3c(N[C@H](C)c4cc(N)cc(C(F)(F)F)c4)cnnc3cn2)CC1` [Example 85, (R)—N-(1-(3-amino-5-(trifluoromethyl)phenyl)ethyl)-6-(4-ethylpiperazin-1-yl)pyrido[3,4-c]pyridazin-4-amine], no less than 50%.
For `C[C@@H](Nc1nc(N(C)CCN(C)C)nc2cnc(N3CCCC3)cc12)c1cc(N)cc(C(F)(F)F)c1` [Example 10, (R)—N4-(1-(3-amino-5-(trifluoromethyl)phenyl)ethyl)-N2-(2-(dimethylamino)ethyl)-N2-methyl-6-(pyrrolidin-1-yl)pyrido[3,4-d]pyrimidine-2,4-diamine] the value was no less than 50%.
For `CC(C)Nc1nc(N[C@H](C)c2cc(N)cc(C(F)(F)F)c2)c2cc(N3CCOCC3)ncc2n1` [Example 38, (R)—N4-(1-(3-amino-5-(trifluoromethyl)phenyl)ethyl)-N2-isopropyl-6-morpholinopyrido[3,4-d]pyrimidine-2,4-diamine] the value was no less than 50%; for `CC(C)N1CCN(c2cc3c(N[C@H](C)c4cc(N)cc(C(F)(F)F)c4)nc(Cl)nc3cn2)CC1` [Example 25, (R)—N-(1-(3-amino-5-(trifluoromethyl)phenyl)ethyl)-2-chloro-6-(4-isopropylpiperazin-1-yl)pyrido[3,4-d]pyrimidin-4-amine], no less than 50%.
Regarding `CNc1nc(N[C@H](C)c2cc(N)cc(C(F)(F)F)c2)c2cc(N3CCC(F)(F)CC3)ncc2n1` [Example 32, (R)—N4-(1-(3-amino-5-(trifluoromethyl)phenyl)ethyl)-6-(4,4-difluoropiperidin-1-yl)-N2-methylpyrido[3,4-d]pyrimidine-2,4-diamine], the inhibition at 1 µM is no less than 50%.
For `COCCNc1nc(N[C@H](C)c2cc(N)cc(C(F)(F)F)c2)c2cc(N3CCCC3)ncc2n1` [Example 14, (R)—N4-(1-(3-amino-5-(trifluoromethyl)phenyl)ethyl)-N2-(2-methoxyethyl)-6-(pyrrolidin-1-yl)pyrido[3,4-d]pyrimidine-2,4-diamine] the value was no less than 50%; for `C[C@@H](Nc1nc(N2CCC2)nc2cnc(C3CCOCC3)cc12)c1cc(N)cc(C(F)(F)F)c1` [Example 67, (R)—N-(1-(3-amino-5-(trifluoromethyl)phenyl)ethyl)-2-(azetidin-1-yl)-6-(tetrahydro-2H-pyran-4-yl)pyrido[3,4-d]pyrimidin-4-amine], no less than 50%.
As for `C[C@@H](Nc1nc(Cl)nc2cnc(N3CCOCC3)cc12)c1cc(N)cc(C(F)(F)F)c1` [Example 19, (R)—N-(1-(3-amino-5-(trifluoromethyl)phenyl)ethyl)-2-chloro-6-morpholinopyrido[3,4-d]pyrimidin-4-amine], the inhibition at 1 µM is no less than 50%.
For `C[C@@H](Nc1nc(NC(=O)CN)nc2cnc(N3CCCC3)cc12)c1cc(N)cc(C(F)(F)F)c1` [Example 77, (R)-2-amino-N-(4-((1-(3-amino-5-(trifluoromethyl)phenyl)ethyl)amino)-6-(pyrrolidin-1-yl)pyrido[3,4-d]pyrimidin-2-yl)acetamide hydro chloride] the value was no less than 50%; for `C[C@@H](Nc1nc(N(C)C)nc2cnc(N3CCN(C)CC3)cc12)c1cc(N)cc(C(F)(F)F)c1` [Example 45, (R)—N4-(1-(3-amino-5-(trifluoromethyl)phenyl)ethyl)-N2,N2-dimethyl-6-(4-methylpiperazin-1-yl)pyrido[3,4-d]pyrimidine-2,4-diamine], no less than 50%.
`COC1CCN(c2cc3c(N[C@H](C)c4cc(N)cc(C(F)(F)F)c4)nc(N4CCC4)nc3cn2)CC1` [Example 40, (R)—N-(1-(3-amino-5-(trifluoromethyl)phenyl)ethyl)-2-(azetidin-1-yl)-6-(4-methoxypiperidin-1-yl)pyrido[3,4-d]pyrimidin-4-amine] gave an inhibition at 1 µM of no less than 50%.
On to `C[C@@H](Nc1nc(N2CCC2)nc2cnc(N(C)C)cc12)c1cc(N)cc(C(F)(F)F)c1` [Example 53, (R)—N4-(1-(3-amino-5-(trifluoromethyl)phenyl)ethyl)-2-(azetidin-1-yl)-N6,N6-dimethylpyrido[3,4-d]pyrimidine-4,6-diamine], for which the inhibition at 1 µM was no less than 50%.
For `CCN1CCN(c2cnc3c(C)nnc(N[C@H](C)c4cc(N)cc(C(F)(F)F)c4)c3c2)CC1` [Example 86, (R)—N-(1-(3-amino-5-(trifluoromethyl)phenyl)ethyl)-3-(4-ethylpiperazin-1-yl)-8-methylpyrido[2,3-d]pyridazin-5-amine] the value was no less than 50%; for `COC1CCN(c2cc3c(N[C@H](C)c4cc(N)cc(C(F)(F)F)c4)nc(Cl)nc3cn2)CC1` [Example 20, (R)—N-(1-(3-amino-5-(trifluoromethyl)phenyl)ethyl)-2-chloro-6-(4-methoxypiperidin-1-yl)pyrido[3,4-d]pyrimidin-4-amine], no less than 50%.
For `C[C@@H](Nc1nc(Cl)nc2cnc(N3CCC(F)CC3)cc12)c1cc(N)cc(C(F)(F)F)c1` [Example 22, (R)—N-(1-(3-amino-5-(trifluoromethyl)phenyl)ethyl)-2-chloro-6-(4-fluoropiperidin-1-yl)pyrido[3,4-d]pyrimidin-4-amine] the value was no less than 50%; for `C[C@@H](Nc1nc(Cl)nc2ncc(N3CCOCC3)cc12)c1cc(N)cc(C(F)(F)F)c1` [Example 84, (R)—N-(1-(3-amino-5-(trifluoromethyl)phenyl)ethyl)-2-chloro-6-morpholinopyrido[2,3-d]pyrimidin-4-amine], no less than 50%.
For `C[C@@H](Nc1nc(N(C)C)nc2cnc(N3CCC(F)CC3)cc12)c1cc(N)cc(C(F)(F)F)c1` [Example 43, (R)—N4-(1-(3-amino-5-(trifluoromethyl)phenyl)ethyl)-6-(4-fluoropiperidin-1-yl)-N2,N2-dimethylpyrido[3,4-d]pyrimidine-2,4-diamine] the value was no less than 50%; for `CC(C)Nc1cc2c(N[C@H](C)c3cc(N)cc(C(F)(F)F)c3)nc(N3CCCC3)nc2cn1` [Example 55, (R)—N4-(1-(3-amino-5-(trifluoromethyl)phenyl)ethyl)-N6-isopropyl-2-(pyrrolidin-1-yl)pyrido[3,4-d]pyrimidine-4,6-diamine], no less than 50%; for `CNc1nc(N[C@H](C)c2cc(N)cc(C(F)(F)F)c2)c2cc(C3CCOCC3)ncc2n1` [Example 66, (R)—N4-(1-(3-amino-5-(trifluoromethyl)phenyl)ethyl)-N2-methyl-6-(tetrahydro-2H-pyran-4-yl)pyrido[3,4-d]pyrimidine-2,4-diamine], no less than 50%.
Compound `CCN1CCN(c2ccc3nc(Cl)nc(N[C@H](C)c4cc(N)cc(C(F)(F)F)c4)c3c2)CC1` [Example 73, (R)—N-(1-(3-amino-5-(trifluoromethyl)phenyl)ethyl)-2-chloro-6-(4-ethylpiperazin-1-yl)quinazolin-4-amine] registered an inhibition at 1 µM of no less than 50%.
For `CCC(=O)Nc1nc(N[C@H](C)c2cc(N)cc(C(F)(F)F)c2)c2cc(N3CCCC3)ncc2n1` [Example 75, (R)—N-(4-((1-(3-amino-5-(trifluoromethyl)phenyl)ethyl)amino)-6-(pyrrolidin-1-yl)pyrido[3,4-d]pyrimidin-2-yl)propionamide] the value was less than 50%.
